The source of these data is patent US11117903B2, “Pyridine derivatives” (Hoffmann-La Roche Inc., priority 2017, dated 2021).

The target in this test is T1, human CB2 receptors (Homo sapiens, UniProt P34972).
T1 construct: expressed in transfected cells; host or cells: CHO cells
Kind of test: cAMP assay human CB2. Format: cell-based. Conditions: for Percent relative efficacy compared to the reference agonist CP55940 for which this value is set to +100%: negative values = inverse agonists, CP55940 = +100%. The procedure:
The growth medium was exchanged with Krebs Ringer Bicarbonate buffer with 1 mM IBMX and incubated at 30° C. for 30 min. Compounds were added to a final assay volume of 100 μl and incubated for 30 min at 30° C. […] The time-resolved energy transfer is measured by a TRF reader (Evotec Technologies GmbH), equipped with a ND:YAG laser as excitation source. The plate is measured twice with the excitation at 355 nm and at the emission with a delay of 100 ns and a gate of 100 ns, total exposure time 10s at 730 (bandwidth 30 nm) or 645 nm (bandwidth 75 nm), respectively.
EC50 values were determined using Activity Base analysis (ID Business Solution, Limited).

Setting [1] is: CHO cells expressing human CB2 receptors, read-out: cAMP assay human CB2 EC50.

Where two headings read alike, the source gives them in different places.

T1 sequence (P34972 whole entry): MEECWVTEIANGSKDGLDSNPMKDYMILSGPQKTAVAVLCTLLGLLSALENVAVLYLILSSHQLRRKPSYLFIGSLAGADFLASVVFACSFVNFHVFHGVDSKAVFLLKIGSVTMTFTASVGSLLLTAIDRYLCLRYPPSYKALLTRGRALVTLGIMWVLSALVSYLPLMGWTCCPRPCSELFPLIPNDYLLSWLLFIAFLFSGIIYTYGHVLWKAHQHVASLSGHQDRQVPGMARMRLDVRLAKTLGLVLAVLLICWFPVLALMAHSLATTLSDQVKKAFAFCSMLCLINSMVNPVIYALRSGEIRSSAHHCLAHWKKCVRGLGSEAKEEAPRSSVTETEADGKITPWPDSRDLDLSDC

Consider `CC(C)C[C@@H](CO)NC(=O)c1cc(-c2ccc(Cl)cc2Cl)c(OCC2CC2)cn1` [Example 1, 5-(Cyclopropylmethoxy)-4-(2,4-dichlorophenyl)-N-[(2S)-1-hydroxy-4-methylpentan-2-yl]pyridine-2-carboxamide], for which the concentration giving a half-maximal response (EC50) came out at 15.2 nM and the “Percent relative efficacy compared to the reference agonist CP55940 for which this value is set to +100%” value (from here on “Percent relative efficacy … to +100%”) was −40.1%.
The like results for `O=C(N[C@@H]1CCCC[C@@H]1O)c1cc(-c2ccc(Cl)cc2)c(OCC2CC2)cn1` [Example 2, 4-(4-Chlorophenyl)-5-(cyclopropylmethoxy)-N-[(1R,2S)-2-hydroxycyclohexyl]pyridine-2-carboxamide] were, in that order, 257 nM and −90.6%.
The like results for `O=C(N[C@H]1CCCC[C@H]1O)c1cc(-c2ccc(Cl)cc2)c(OCC2CC2)cn1` [Example 3, 4-(4-Chlorophenyl)-5-(cyclopropylmethoxy)-N-[(1 S,2R)-2-hydroxycyclohexyl]pyridine-2-carboxamide] were, in that order, 46.6 nM and −85.1%.
For `CCC(CC)(NC(=O)c1cc(-c2ccc(Cl)cc2)c(OCC2CC2)cn1)C(=O)OC` [Example 4, Methyl 2-[[4-(4-chlorophenyl)-5-(cyclopropylmethoxy)pyridine-2-carbonyl]amino]-2-ethylbutanoate], the EC50 turned out to be 14.4 nM and the “Percent relative efficacy … to +100%” value is on record as −70.5%.
Consider `CCC(CC)(NC(=O)c1cc(-c2ccc(Cl)c(Cl)c2)c(OCC2CC2)cn1)C(=O)OC` [Example 5, Methyl 2-[[5-(cyclopropylmethoxy)-4-(3,4-dichlorophenyl)pyridine-2-carbonyl]amino]-2-ethylbutanoate], for which the half-maximal effective concentration (EC50) is 6.9 nM and the “Percent relative efficacy … to +100%” value is given as −128.6%.
Regarding `CO[C@H]1CCCC[C@H]1NC(=O)c1cc(-c2ccc(Cl)cc2)c(OCC2CC2)cn1` [Example 6, 4-(4-chlorophenyl)-5-(cyclopropylmethoxy)-N-[(1R,2S)-2-methoxycyclohexyl]pyridine-2-carboxamide], the EC50 came out at 124 nM and the “Percent relative efficacy … to +100%” value is reported as −102.9%.
For the molecule `O=C(N[C@@H](CO)c1ccccc1)c1cc(OCC2CC2)c(Cl)cn1` [Example 7, 5-Chloro-4-(cyclopropylmethoxy)-N-[(1R)-2-hydroxy-1-phenylethyl]pyridine-2-carboxamide], the concentration giving a half-maximal response (EC50) is 497 nM and the “Percent relative efficacy … to +100%” value is −41.7%.
In the case of `CNC(=O)[C@@H](NC(=O)c1cc(OCC2CC2)c(Cl)cn1)C(C)(C)C` [Example 8, 5-Chloro-4-(cyclopropylmethoxy)-N-[(2S)-3,3-dimethyl-1-(methylamino)-1-oxobutan-2-yl]pyridine-2-carboxamide], the midpoint of the response, the EC50, lay at 4.4 nM and the “Percent relative efficacy … to +100%” value was −141.9%.
With `O=C(N[C@@H](c1ccccn1)C(F)(F)F)c1cc(OCC2CC2)c(Cl)cn1` [Example 9, (−) 5-Chloro-4-(cyclopropylmethoxy)-N-[2,2,2-trifluoro-1-pyridin-2-ylethyl]pyridine-2-carboxamide], a half-maximal response (EC50) required 296 nM and the “Percent relative efficacy … to +100%” value was −114.7%.
Regarding `O=C(N[C@H](c1cccnc1)C(F)(F)F)c1cc(OCC2CC2)c(Cl)cn1` [Example 10, 5-Chloro-4-(cyclopropylmethoxy)-N-[(1R)-2,2,2-trifluoro-1-pyridin-3-ylethyl]pyridine-2-carboxamide], the EC50 was 1560 nM and the “Percent relative efficacy … to +100%” value is −36.8%.
Turning to `CNC(=O)[C@H](CC(C)C)NC(=O)c1cc(OCC2CC2)c(Cl)cn1` [Example 11, 5-Chloro-4-(cyclopropylmethoxy)-N-[(2S)-4-methyl-1-(methylamino)-1-oxopentan-2-yl]pyridine-2-carboxamide], the EC50 is 181 nM and the “Percent relative efficacy … to +100%” value is listed as −28.5%.
Turning to `CNC(=O)[C@@H](CC(C)C)NC(=O)c1cc(OCC2CC2)c(Cl)cn1` [Example 12, 5-Chloro-4-(cyclopropylmethoxy)-N-[(2R)-4-methyl-1-(methylamino)-1-oxopentan-2-yl]pyridine-2-carboxamide], the EC50 amounted to 3230 nM and the “Percent relative efficacy … to +100%” value was −40.1%.
`CNC(=O)[C@@H](NC(=O)c1cc(OCC2(C)COC2)c(C2CC2)cn1)C(C)(C)C` [Example 13, 5-Cyclopropyl-N-[(2S)-3,3-dimethyl-1-(methylamino)-1-oxobutan-2-yl]-4-[(3-methyloxetan-3-yl)methoxy]pyridine-2-carboxamide]: the “Percent relative efficacy … to +100%” value was −158.8%. Further, the EC50 under setting [1] is 26.1 nM.
With `CC(C)(C)c1nc(-c2cc(OCC3CC3)c(N3CC4(COC4)C3)cn2)no1` [Example 14, 6-[6-(5-tert-Butyl-1,2,4-oxadiazol-3-yl)-4-(cyclopropylmethoxy)pyridin-3-yl]-2-oxa-6-azaspiro[3.3]heptane], a half-maximal response (EC50) required 36.7 nM and the “Percent relative efficacy … to +100%” value is reported as −65.9%.
`CC(C)(C)OC(=O)N1CCC[C@H]1COc1cc(-c2noc(C(C)(C)C)n2)ncc1C1CC1` [Example 15, tert-Butyl (2S)-2-[[2-(5-tert-butyl-1,2,4-oxadiazol-3-yl)-5-cyclopropylpyridin-4-yl]oxymethyl]pyrrolidine-1-carboxylate]: the midpoint of the response, the EC50, lay at 1510 nM and the “Percent relative efficacy … to +100%” value is reported as −75.2%.
As to `CC(C)(C)OC(=O)N1CC[C@@H](Oc2cc(-c3noc(C(C)(C)C)n3)ncc2C2CC2)C1` [Example 16, tert-Butyl (3R)-3-[2-(5-tert-butyl-1,2,4-oxadiazol-3-yl)-5-cyclopropylpyridin-4-yl]oxypyrrolidine-1-carboxylate], the 50% effective concentration (EC50) was determined as 315 nM and the “Percent relative efficacy … to +100%” value is −103.1%.
Take `CC(C)(C)c1nc(-c2cc(OCc3cccc(S(C)(=O)=O)c3)c(C3CC3)cn2)no1` [Example 17, 5-tert-Butyl-3-[5-cyclopropyl-4-[(3-methylsulfonylphenyl)methoxy]pyridin-2-yl]-1,2,4-oxadiazole]: the “Percent relative efficacy … to +100%” value is reported as −49.9%. Under setting [1], the EC50 is 2010 nM.
Take `Cc1nnc(C(C)(NC(=O)c2cc(OCC(F)(F)F)c(C3CC3)cn2)C2CNC2)o1` (stereo not shown) [Example 18, N-[1-(azetidin-3-yl)-1-(5-methyl-1,3,4-oxadiazol-2-yl)ethyl]-5-cyclopropyl-4-(2,2,2-trifluoroethoxy)pyridine-2-carboxamide]: the “Percent relative efficacy … to +100%” value was −48.7%. Besides, the EC50 under setting [1] came out at 7210 nM.
As for `CCOC(=O)C(CC)(CC)NC(=O)c1cc(OCC2(C)COC2)c(C2CC2)cn1` [Example 19, Ethyl 2-[[5-cyclopropyl-4-[(3-methyloxetan-3-yl)methoxy]pyridine-2-carbonyl]amino]-2-ethylbutanoate], the midpoint of the response, the EC50, lay at 148 nM and the “Percent relative efficacy … to +100%” value was 13%.
Take `Cc1nc(C(C)(CC2CC2)NC(=O)c2cc(OCC3(C)CC3(F)F)c(Cl)cn2)no1` (stereo not shown) [Example 20, 5-Chloro-N-[1-cyclopropyl-2-(5-methyl-1,2,4-oxadiazol-3-yl)propan-2-yl]-4-[(2,2-difluoro-1-methylcyclopropyl)methoxy]pyridine-2-carboxamide]: the half-maximal effective concentration (EC50) is 420 nM and the “Percent relative efficacy … to +100%” value is reported as −150.8%.
Turning to `Cc1nc(C(C)(CC2CC2)NC(=O)c2cc(On3nnc4ccccc43)c(C(F)(F)F)cn2)no1` (stereo not shown) [Example 21, 4-(Benzotriazol-1-yloxy)-N-[1-cyclopropyl-2-(5-methyl-1,2,4-oxadiazol-3-yl)propan-2-yl]-5-(trifluoromethyl)pyridine-2-carboxamide], the EC50 worked out at 87 nM and the “Percent relative efficacy … to +100%” value was −147.5%.
Turning to `CC(CC(N)=O)(NC(=O)c1cc(OCc2ccc(F)cn2)c(C2CC2)cn1)C1CC1` (stereo not shown) [Example 22, N-(4-Amino-2-cyclopropyl-4-oxobutan-2-yl)-5-cyclopropyl-4-[(5-fluoropyridin-2-yl)methoxy]pyridine-2-carboxamide], the EC50 came to 47.1 nM and the “Percent relative efficacy … to +100%” value is given as −78.4%.
The like results for `Cc1nc([C@](C)(CC2CC2)NC(=O)c2cc(-c3ccc(F)nc3)c(OCc3ccccc3)cn2)no1` [Example 23, N-[(2S)-1-Cyclopropyl-2-(5-methyl-1,2,4-oxadiazol-3-yl)propan-2-yl]-4-(6-fluoropyridin-3-yl)-5-phenylmethoxypyridine-2-carboxamide] were, in that order, 1030 nM and −87.7%.
